Tests used:
[1] = molecular target: T1, Adenosine A1 receptor (human) membrane (Homo sapiens, UniProt P30542); test: Determination of competitive inhibition constant (Ki) for adenosine A1 receptor, [3H]-DPCPX radioligand; assay type: binding; conditions: 1.0 nM [3H]-DPCPX
T1 construct: purchased PerkinElmer ES-010-M400UA
T1 sequence (P30542 1-326): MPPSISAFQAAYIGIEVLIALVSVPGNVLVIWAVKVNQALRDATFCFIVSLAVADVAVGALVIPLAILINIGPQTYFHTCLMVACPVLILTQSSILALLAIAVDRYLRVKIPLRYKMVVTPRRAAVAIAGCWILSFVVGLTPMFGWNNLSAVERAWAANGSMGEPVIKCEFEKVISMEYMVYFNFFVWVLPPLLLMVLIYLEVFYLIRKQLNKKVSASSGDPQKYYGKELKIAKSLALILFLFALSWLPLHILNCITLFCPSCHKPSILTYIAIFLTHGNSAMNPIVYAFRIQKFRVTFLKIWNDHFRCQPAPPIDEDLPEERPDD
In short: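 Human A1 receptor membranes (2.5 μg/well) incubated with 1.0 nM [3H]-DPCPX and test compound for 1 h at room temperature in HEPES/MgCl2/CaCl2/NaCl buffer, pH 7.4; 1000 nM CGS-15943 defined low control. Bound radioactivity collected on PEI-treated GF/C filters and counted; IC50 converted to Ki via Cheng–Prusoff using ligand Kd.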

[2] = molecular target: T2, Adenosine A2a receptor (human) membrane (Homo sapiens, UniProt P29274); test: Determination of competitive inhibition constant (Ki) for adenosine A2a receptor, [3H]-CGS-21680 radioligand; assay type: binding; conditions: for Ki: human A2a receptor membrane, 6.0 nM [3H]-CGS-21680, read-out: Ki(A2a); for Ki(A1)/Ki(A2a): selectivity ratio A1 over A2a
T2 construct: purchased PerkinElmer RBHA2AM400UA
T2 sequence (P29274 whole entry): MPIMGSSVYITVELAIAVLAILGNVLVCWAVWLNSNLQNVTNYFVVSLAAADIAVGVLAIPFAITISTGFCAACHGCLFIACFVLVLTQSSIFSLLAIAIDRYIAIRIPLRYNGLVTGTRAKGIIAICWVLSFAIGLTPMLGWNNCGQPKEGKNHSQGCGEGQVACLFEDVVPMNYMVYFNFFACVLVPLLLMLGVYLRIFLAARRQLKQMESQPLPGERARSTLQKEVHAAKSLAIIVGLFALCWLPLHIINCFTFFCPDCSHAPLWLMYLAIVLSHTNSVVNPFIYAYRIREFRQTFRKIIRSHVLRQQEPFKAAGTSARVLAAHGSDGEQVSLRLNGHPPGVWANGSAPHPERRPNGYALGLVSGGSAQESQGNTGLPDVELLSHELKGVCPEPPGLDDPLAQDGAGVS
In short: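 Human A2a receptor membranes (5.0 μg/well) were incubated 2 h at room temperature with [3H]-CGS-21680 (working concentration 6.0 nM) in 50 mM Tris-HCl pH 7.4, 10 mM MgCl2, 1 mM EDTA. Bound label was collected on PEI-treated GF/C filters and scintillation counted. Inhibition was scaled between 0.5% DMSO and 1000 nM CGS-15943 controls, IC50 was fitted, and Ki = IC50/(1 + [ligand]/Kd).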

Ki [1] [nM] | Ki [2] [nM] | Ki(A1)/Ki(A2a) [2] | Compound
204 | 3.4 | 59.9 | Cc1ncnc2ccc(-c3cnc(NC(=O)N4CCOCC4)nc3-c3ccc(F)cc3)cc12 [Compound 11, N-(4-(4-fluorophenyl)-5-(4-methylquinazolin-6-yl)pyrimidin-2-yl) morpholine-4-carboxamide]
1400 | 9.6 | 146.3 | Cc1cc(-c2cnc(NC(=O)N3CCOCC3)nc2-c2ccc(F)cc2)cc(Cl)n1 [Compound 19, N-(5-(2-chloro-6-methylpyridin-4-yl)-4-(4-fluorophenyl)pyrimidin-2-yl) morpholine-4-carboxamide]

From patent US20210395226A1, “SUBSTITUTED ARYL COMPOUND AND PREPARATION METHOD THEREFOR AND USE THEREOF” (SICHUAN KELUN-BIOTECH BIOPHARMACEUTICAL CO., LTD., priority 2018, published 2021)
